# Results as given in US4705753A, “Biologically active acrylonitrile-based copolymeric membrane” (priority 1984, dated 1987).
# Target: glucose isomerase (GI) from Streptomyces albus, purified, covalently immobilized on acrylonitrile copolymer membrane (Streptomyces albus G, UniProt P24299)
# Conditions: substrate glucose; membrane-bound GI; 70° C., pH 6.8 maleate buffer, 7 mM MgSO4, 3 mM CoSO4
# Sequence of glucose isomerase (GI) from Streptomyces albus, purified, covalently immobilized on acrylonitrile copolymer membrane (P24299 whole entry): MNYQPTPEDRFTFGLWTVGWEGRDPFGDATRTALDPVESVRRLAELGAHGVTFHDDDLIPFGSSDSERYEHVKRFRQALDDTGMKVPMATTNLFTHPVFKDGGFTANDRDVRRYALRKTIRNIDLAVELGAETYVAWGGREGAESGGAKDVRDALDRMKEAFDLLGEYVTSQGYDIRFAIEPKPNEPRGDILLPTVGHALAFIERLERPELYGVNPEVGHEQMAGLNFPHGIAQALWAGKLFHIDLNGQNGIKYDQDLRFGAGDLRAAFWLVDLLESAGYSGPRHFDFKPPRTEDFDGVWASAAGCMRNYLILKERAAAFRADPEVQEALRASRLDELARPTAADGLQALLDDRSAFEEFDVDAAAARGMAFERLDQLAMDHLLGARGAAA
smiles,measurement,value
OC[C@H]1OC(O)[C@H](O)[C@@H](O)[C@@H]1O (stereo partly shown) [glucose],Vmax for the immobilized GI,~15 µmol/min/mg
